For series [1] the following is noted: in vitro and in mice; cited from earlier work.
The test system of series [2] is Ovarian (MRI-H-207) line. The series is classed as in vivo, human. The following applies: 5 mg/kg, days of treatment 0.7. The text has this:
The xenograft experiments have been carried by Dr. H. H. Fiebig of the University of Freiburg [Lung-NSCLC (LXGF) line, Renal line, Breast line; See: H. H. Fiebig et al., Behring Inst. Mitt., 74 343] and by Dr. E. Boven of the Free University Hospital Amsterdam [Ovarian (MRI-H-207) line; See: E. Boven et al., Cancer Res., 45, 86 (1985) and E. Boven et al., Eur. J. Clin. Oncol., 21, 1253 (1985)].
Mice: C57B1 athymic (nu/nu) female mice, 8 to 10 weeks of age were used for s.c. bilateral implantation of tumour fragments 2 mm diameter.
Treatment: E.O. 9 was dissolved in saline at a concentration of 0.5 mg/ml prior to administration. Drug doses and schedules were derived from studies in experimental murine tumour systems and from orientation studies in non-tumour-bearing nude mice. Treatment was started i.v. when tumours measured 50-150 mm^3. After randomization a group of 6-7 tumour-bearing mice was treated and a group of 5-6 tumour-bearing mice served as control.
Evaluation of efficacy: Tumours were measured twice weekly in three dimensions. Efficacy was expressed as the mean of relative tumour volume in treated animals vs. that in control animals×100 (% T/C). The optimal value was calculated within 35 days after the last injection. Toxic death (dead mice within two weeks after the last injection) were excluded from the evaluation.
MRI-H-207: An undifferentiated adenocarcinoma kindly provided by Dr. A. E. Bogden, Worcester, Mass, with a doubling time of 3-5 days.

Series [3] relates to WiDr cells; colon tumour. Briefly: In vitro panel of human tumour lines (TNO): WiDr. Also: key: -: no inhibition of cell growth; +: total cell-kill. Particulars: about 72 hours. The series is classed as cell-based. Put shortly:
(§1)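 Cells in Dulbecco's medium with 10% foetal calf serum were seeded 48 h, then exposed continuously to increasing compound concentrations (final ethanol <1%) for about 72 h at 37° in 10% CO2. Crystal violet staining after fixation; inhibiting concentration estimated qualitatively.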

In series [4] the test system is A 204 cells; rhabdomyosarcoma. Briefly: In vitro panel of human tumour lines (TNO): A 204. Also: key: -: no inhibition of cell growth; +: total cell-kill. Format: cell-based. The following applies: about 72 hours. Put shortly: (§2)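 Cells (5×10^4/ml, Dulbecco's medium + 10% FCS) grafted 48 h, then continuously exposed to compound (Hanks'/ethanol, final ethanol <1%) for about 72 h at 37°C, 10% CO2. Crystal violet fixation/staining; inhibiting concentration estimated qualitatively over increasing doses.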

The test system of series [5] is T 24 cells; bladder carcinoma. Briefly: In vitro panel of human tumour lines (TNO): T 24. Also: key: -: no inhibition of cell growth; +: total cell-kill. The series is classed as cell-based. Particulars: about 72 hours. The method, boiled down: as §2
The test system of series [6] is MCF7 breast cancer cells. Briefly: In vitro panel of human tumour lines (TNO): MCF-7. Also: key: -: no inhibition of cell growth; +: total cell-kill. Format: cell-based. The following applies: about 72 hours. The method, boiled down: as §1
Series [7] relates to breast, pancreatic and prostatic adenocarcinomas, colon, bladder, lung and gastro-intestinal cancer. The following applies: cited from earlier work.
Series [8] has as its system L1210 cells. Briefly: L1210 activity (bioliquid assay), cytotoxicity. Format: cell-based. Particulars: Mus musculus, L1210, 48 h; Table VIII; read-out: ID-50 L1210. Put shortly:
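Suspension culture in RPMI with 15% FCS and 2-mercaptoethanol (60 μmol). Continuous compound exposure for 48 hours at 37° C under 5% CO2 in humidified air. Cell numbers then counted on an electronic microcell counter.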

Series [9] deals with R-1 cells (Rhabdomyosarcoma Cells). Briefly: R-1 activity (bioliquid assay), cytotoxicity. The series is classed as cell-based. Particulars: Rhabdomyosarcoma cell; Table VIII; read-out: ID-50 R-1. Put shortly: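 Rhabdomyosarcoma R-1 cells (~10^6 per dish) in Dulbecco's medium with 10% FCS were exposed to drug solution, which was then replaced by fresh medium. Cells were trypsinized after 48 hours and counted electronically.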

Series [10] has as its system L1210. The following applies: 3-6 mg/kg; Remers et al., J. Med. Chem. 26 16 (1983); cited from earlier work.
Series [11] concerns DNA. Particulars: cited from earlier work.
Series [12] concerns L1210. Kind of series: In vivo L1210 experiments (TNO Rijswijk). Also on record: species or system mice. Particulars: Mus musculus, L1210, read-out: % T/C. The protocol:
The in vivo L1210 experiments were carried out in male Balb/c X DBA.2 Fl hybrid mice at TNO, Rijswijk.
In these experiments also, the drugs were administered IP as suspensions in carboxymethyl cellulose […] as a single dose at the first day.

Series [13] deals with supercoiled covalently closed circular (CCC) DNA. The following applies: reducing agent, presence of oxygen; cited from earlier work.
In series [14] the test system is IgR37 cells melanoma. Kind of series: In vitro panel of human tumour lines (TNO): IgR-37. Also: key: -: no inhibition of cell growth; +: total cell-kill. The series is classed as cell-based. The following applies: about 72 hours. The method, boiled down:
as §2

≈ marks a conversion by molar mass, not a printed value.

Turning to `COC1=C(C)C(=O)c2c(c(COC(N)=O)c3n2CCC3)C1=O` [7-methoxymitosene], in [1], the “antibacterial activity” value was “important antibacterial activity in vitro and in mice”.

Take `CO[C@@]12[C@H](COC(N)=O)C3=C(C(=O)C(C)=C(N)C3=O)N1C[C@@H]1N[C@@H]12` [MMC, mitomycin C, reference compound]: the toxic deaths in series [2] is reported as 1/7. For the same molecule, the “in vitro activity score, WiDr” value is reported as “-” in series [3] (0.01 μg/ml), “-” in series [3] (0.1 μg/ml) and “+” in series [3] (10 μg/ml). In addition, the entries for the “in vitro activity score, A 204” value in series [4] (0.01 μg/ml), in [4] (1.0 μg/ml) and in [4] (10 μg/ml) were “-”, “+” and “+”, respectively. Besides, the entries for the “in vitro activity score, T 24” value in series [5] (0.01 μg/ml) and in series [5] (10 μg/ml) were “-” and “+”, respectively. For the same molecule, the “in vitro activity score, MCF-7” value is recorded as “-” in series [6] (0.01 μg/ml), “-” in series [6] (0.1 μg/ml) and “+” in series [6] (10 μg/ml). Further, the “antitumour activity” value in [7] is “active against breast, pancreatic and prostatic adenocarcinomas, and notably against colon, bladder, lung and gastro-intestinal cancer”. Moreover, the IC50 is 0.05 µg/mL (≈ 0.15 µM) in series [8] and 0.03 µg/mL (≈ 0.0897 µM) in series [9]. The “max. effect (% T/C)” value in series [10] is 124-153%. The “DNA crosslinks” value in series [11] is reported as “caused rapid DNA instrand crosslinks in a dose dependent fashion”. Further, the response vs control in vivo at 4 mg/kg in series [12] (4 mg/kg IP single dose) turned out to be 200%. In series [12] (5 mg/kg IP single dose), the response vs control in vivo at 5 mg/kg was 175%. Also, the response vs control in vivo at 6 mg/kg in series [12] (6 mg/kg IP single dose) was 175%. Also, in [13], the “DNA strand breaks” value is listed as “produced single strand breaks”. Besides, the figures for the “in vitro activity score, IgR-37” value in series [14] (0.01 μg/ml), in series [14] (1.0 μg/ml) and in series [14] (10 μg/ml) were “-”, “+” and “+”, respectively.

Values taken from patent publication US5079257A, “Indoloquinone compounds” (priority 1986, dated 1992).
